Results on 27 compounds are retold here after US12043613B2, “Inhibitors of SARM1” (Disarm Therapeutics, Inc., priority 2020, dated 2024).

The first experiment concerns the target T1, SARM1 (ARM-SAM-TIR, full length SARM1) (Homo sapiens, UniProt Q6SZW1).
T1 sequence (Q6SZW1 with tags, fused parts or gaps): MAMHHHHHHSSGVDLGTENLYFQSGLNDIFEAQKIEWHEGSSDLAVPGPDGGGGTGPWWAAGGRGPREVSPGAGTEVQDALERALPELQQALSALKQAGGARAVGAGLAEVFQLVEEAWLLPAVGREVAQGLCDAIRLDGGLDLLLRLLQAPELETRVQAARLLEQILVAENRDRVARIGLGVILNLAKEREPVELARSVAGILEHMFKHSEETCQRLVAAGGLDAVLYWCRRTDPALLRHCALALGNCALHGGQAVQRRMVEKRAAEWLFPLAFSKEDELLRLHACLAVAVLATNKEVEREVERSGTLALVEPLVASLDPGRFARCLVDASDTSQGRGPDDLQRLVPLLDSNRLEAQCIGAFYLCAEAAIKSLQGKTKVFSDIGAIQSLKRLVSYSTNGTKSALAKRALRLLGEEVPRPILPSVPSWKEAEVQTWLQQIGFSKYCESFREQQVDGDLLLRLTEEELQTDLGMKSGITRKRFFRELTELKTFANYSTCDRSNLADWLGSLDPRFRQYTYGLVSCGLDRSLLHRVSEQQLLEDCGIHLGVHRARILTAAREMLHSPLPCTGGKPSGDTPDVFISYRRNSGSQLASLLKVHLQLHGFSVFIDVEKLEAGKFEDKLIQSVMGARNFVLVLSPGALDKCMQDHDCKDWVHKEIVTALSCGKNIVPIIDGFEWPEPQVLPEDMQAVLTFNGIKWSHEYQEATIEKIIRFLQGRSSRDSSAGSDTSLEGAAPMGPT
Assay: not given
As to conditions: read-out: SARM1 IC50; ARM-SAM-TIR lysate 5 μg/mL from NRK1-HEK293T cells, 2 h pre-incubation, 5 uM NAD+, 2 hr room temperature.
On to `O=C1C(Cc2ccc(Cl)cc2)CCCN1c1nnc(-c2ccncc2)[nH]1` (single isomer, unassigned) [I-5* (peak 2)], for which the 50% inhibitory concentration (IC50) (as a rule, the point on the concentration scale where inhibition reaches its midpoint) is less than 0.05 µM.

For `O=C1C(Cc2ccc(F)c(F)c2)CCN1c1cc(-c2ccncc2)n[nH]1` (single isomer, unassigned) [I-16* (peak 2)], the IC50 is less than 0.05 µM.

On to `O=C1C(Cc2ccc(Cl)cc2)CCCN1c1cc(-c2ccncc2)n[nH]1` (single isomer, unassigned) [I-19* (peak 2)], for which the IC50 is less than 0.05 µM.

For the compound `N#Cc1ccc(CC2CCN(c3cc(-c4ccncc4)n[nH]3)C2=O)cc1F` (single isomer, unassigned) [I-37* (peak 2)], the half-inhibitory concentration (IC50) lay in the range of 0.051 to 0.1 µM.

Take `Cc1c(-c2ccncc2)n[nH]c1N1CCC(Cc2cnc(Cl)c(F)c2)C1=O` (single isomer, unassigned) [I-41* (peak 2)]: the half-maximal inhibitory concentration (IC50) lay in the range of 0.101 to 0.5 µM.

Turning to `O=C1N(c2nc(-c3ccncc3)n[nH]2)CCC1(F)Cc1ccc(Cl)nc1` (single isomer, unassigned) [I-42* (peak 2)], the concentration for half-maximal inhibition (IC50) is greater than 1 µM.

For the compound `Cc1c(-c2ccncc2)n[nH]c1N1CCC(Cc2ccc(Cl)nc2)C1=O` (single isomer, unassigned) [I-48* (peak 2)], the IC50 lay in the range of 0.101 to 0.5 µM.

Regarding `O=C1C(Cc2cnc(Cl)c(F)c2)CCN1c1cc(-c2ccncc2)n[nH]1` (single isomer, unassigned) [I-65* (peak 2)], the concentration for half-maximal inhibition (IC50) was less than 0.05 µM.

`O=C1[C@H](Cc2ccc(Cl)c(F)c2)CCCN1c1cc(-c2ccnnc2)n[nH]1` [I-76*]: the IC50 is less than 0.05 µM.

Take `O=C1[C@H](Cc2ccc(Cl)nc2)CCCN1c1cc(-c2ccnnc2)n[nH]1` [I-77*]: the half-maximal inhibitory concentration (IC50) was less than 0.05 µM.

As for `O=C1[C@H](Cc2ccc(F)nc2)CCCN1c1cc(-c2ccnnc2)n[nH]1` [I-84*], the IC50 was less than 0.05 µM.

In the case of `O=C1[C@H](Cc2ccc(F)cc2)CCCN1c1cc(-c2ccnnc2)n[nH]1` [I-85*], the IC50 was less than 0.05 µM.

A further experiment has as its target T1, SARM1 (ARM-SAM-TIR, full length SARM1). Description: biochemical. The following applies: SARM1 IC50 (nM), ARM-SAM-TIR lysate 5 μg/mL from NRK1-HEK293T cells, 2 h pre-incubation, 5 uM NAD+, 2 hr room temperature.
Experimental: This assay makes use of full length SARM1, which encompasses the ARM, SAM and TIR domains.
Preparation of ARM-SAM-TIR lysate (STL)
NRK1-HEK293T cells were seeded onto 150 cm^2 plates at 20×10^6 cells per plate. The next day, the cells were transfected with 15 g ARM-SAM-TIR expression plasmid, SEQ ID NO: 1.
The cultures were supplemented with 1 mM NR at time of transfection to minimize toxicity from ARM-SAM-TIR overexpression. Forty-eight hours after transfection, cells were harvested, pelleted by centrifugation at 1,000 rpm (Sorvall ST 16R centrifuge, Thermo Fisher), and washed once with cold PBS (0.01 M phosphate buffered saline NaCl 0.138 M; KCl 0.0027 M; pH 7.4). The cells were resuspended in PBS with protease inhibitors (cOmplete™ protease inhibitor cocktail, Roche product #11873580001) and cell lysates were prepared by sonication (Branson Sonifer 450, output=3, 20 episodes of stroke). The lysates were centrifuged (12,000×g for 10 min at 4° C.) to remove cell debris and the supernatants (containing ARM-SAM-TIR protein) were stored at −80° C. for later use in the in vitro ARM-SAM-TIR NADase assay (see below). Protein concentration was determined by the Bicinchoninic (BCA) method and used to normalize lysate concentrations.
ARM-SAM-TIR IC50 assay of Formula I compounds.
The enzymatic assay was performed in a 384-well polypropylene plate in Dulbecco's PBS buffer in a final assay volume of 20 μL. ARM-SAM-TIR lysate with a final concentration of 5 μg/mL was pre-incubated with the respective compound at 1% DMSO final assay concentration over 2h at room temperature. The reaction was initiated by addition of 5 uM final assay concentration of NAD+ as substrate. After a 2 hr room temperature incubation, the reaction was terminated with 40 μL of stop solution of 7.5% trichloroactetic acid in acetonitrile. The NAD+ and ADPR concentrations were analyzed by a RapidFire High Throughput Mass Spectrometry System (Agilent Technologies, Santa Clara, Calif.) using an API4000 triple quadrupole mass spectrometer (AB Sciex Framingham, Mass.).
`N#Cc1ccc(CC2CCCN(c3cc(-c4ccncc4)n[nH]3)C2=O)cn1` (stereo not drawn) [Compound I-94] registered an IC50 of 101 to 500 nM.

The compound `O=C1C(Cc2ccc(C(F)(F)F)nc2)CCCN1c1cc(-c2ccncc2)n[nH]1` (stereo not drawn) [Compound I-96] showed an IC50 of 101 to 500 nM.

In turn, `O=C1C(Cc2ccc(C(F)(F)F)nc2)CCCN1c1nc(-c2ccncc2)n[nH]1` (stereo not drawn) [Compound I-97] registered a half-inhibitory concentration (IC50) of 101 to 500 nM.

Take `N#Cc1ccc(CC2CCCN(c3cc(-c4ccncc4)n[nH]3)C2=O)cc1` (stereo not drawn) [Compound I-98]: the IC50 was less than 50 nM.

Turning to `N#Cc1ccc(CC2CCCN(c3nc(-c4ccncc4)n[nH]3)C2=O)cc1` (stereo not drawn) [Compound I-99], the IC50 was in the range of 101 to 500 nM.

In the case of `N#Cc1cc(CC2CCCN(c3cc(-c4ccncc4)n[nH]3)C2=O)ccc1F` (stereo not drawn) [Compound I-100], the IC50 was less than 50 nM.

`N#Cc1cc(CC2CCCN(c3nc(-c4ccncc4)n[nH]3)C2=O)ccc1F` (stereo not drawn) [Compound I-101]: the concentration for half-maximal inhibition (IC50) fell in the range of 101 to 500 nM.

`N#Cc1cc(CC2CCCN(c3cc(-c4ccncc4)n[nH]3)C2=O)ccc1Cl` (stereo not drawn) [Compound I-102]: the IC50 is 51 to 100 nM.

Take `N#Cc1cc(CC2CCCN(c3nc(-c4ccncc4)n[nH]3)C2=O)ccc1Cl` (stereo not drawn) [Compound I-103]: the IC50 lay in the range of 101 to 500 nM.

The compound `N#Cc1ccc(CC2CCN(c3nc(-c4ccncc4)n[nH]3)C2=O)cn1` (stereo not drawn) [Compound I-111] showed a half-inhibitory concentration (IC50) greater than 1000 nM.

Regarding `O=C1C(Cc2ccc(C(F)(F)F)nc2)CCN1c1cc(-c2ccncc2)n[nH]1` (stereo not drawn) [Compound I-112], the IC50 fell in the range of 101 to 500 nM.

`N#Cc1ccc(CC2CCN(c3cc(-c4ccncc4)n[nH]3)C2=O)cc1` (stereo not drawn) [Compound I-114] yielded an IC50 of 101 to 500 nM.

For `N#Cc1ccc(CC2CCN(c3nc(-c4ccncc4)n[nH]3)C2=O)cc1` (stereo not drawn) [Compound I-115], the half-maximal inhibitory concentration (IC50) fell in the range of 501 to 1000 nM.

The compound `N#Cc1cc(CC2CCN(c3cc(-c4ccncc4)n[nH]3)C2=O)ccc1F` (stereo not drawn) [Compound I-116] had an IC50 of 101 to 500 nM.

On to `N#Cc1cc(CC2CCN(c3cc(-c4ccncc4)n[nH]3)C2=O)ccc1Cl` (stereo not drawn) [Compound I-118], for which the 50% inhibitory concentration (IC50) was in the range of 101 to 500 nM.
